From US6784201B2, “Benzothiepines having activity as inhibitors of ileal bile acid transport and taurocholate uptake” (G.D. Searle & Company, priority 1994, dated 2004)
Counter-ions that a name gives are not always drawn.

Legend:
human IBAT = target: T1, human IBAT (Homo sapiens, UniProt Q12908); assay: In vitro assay of IBAT-mediated uptake of [14C]-taurocholate (TC) in H14 cells; assay type: cell-based; settings: In Vitro Taurocholate Uptake, Table 10; read-out: Human TC IC50
T1 construct: expressed in transfected cells; host or cells: Baby hamster kidney (BHK) cells, clone H14
T1 sequence (Q12908 1-348): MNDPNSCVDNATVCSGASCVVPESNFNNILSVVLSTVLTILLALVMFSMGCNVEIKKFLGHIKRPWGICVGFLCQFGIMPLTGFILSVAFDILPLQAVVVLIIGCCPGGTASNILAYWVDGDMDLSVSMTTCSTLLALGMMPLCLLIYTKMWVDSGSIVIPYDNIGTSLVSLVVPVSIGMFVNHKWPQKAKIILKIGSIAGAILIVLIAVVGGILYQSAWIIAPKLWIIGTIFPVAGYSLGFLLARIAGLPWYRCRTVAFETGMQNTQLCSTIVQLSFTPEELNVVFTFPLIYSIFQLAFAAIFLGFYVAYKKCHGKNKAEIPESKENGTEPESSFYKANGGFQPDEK
Outline: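 BHK cells stably expressing human IBAT (H14) were incubated 2 h at 37° C with compound and 3 μM final [14C]-taurocholate in DMEM (4.5 g/L glucose) plus 0.2% fatty acid-free BSA. After cold PBS washes, cell-associated radioactivity was measured by scintillation counting.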

fecal bile acid (FBA) = assay: Rat gavage assay (fecal bile acid increase); assay type: in vivo
Protocol: Male Wister rats (275-300 g) are administered IBAT inhibitors using an oral gavage procedure. Drug or vehicle (0.2% Tween 80 in water) is administered once a day (9:00-10:0 a.m.) for 4 days at varying dosages in a final volume of 2 mL per kilogram of body weight. Total fecal samples are collected during the final 48 hours of the treatment period and analyzed for bile acid content using an enzymatic assay as described below. Compound efficacy is determined by comparison of the increase in fecal bile acid (FBA) concentration in treated rats to the mean FBA concentration of rats in the vehicle group.
Measurement of Fecal Bile Acid Concentration (FBA)
Total fecal output from individually housed hamsters was collected for 24 or 48 hours, dried under a stream of nitrogen, pulverized and weighed. Approximately 0.1 gram was weighed out and extracted into an organic solvent (butanol/water). Following separation and drying, the residue was dissolved in methanol and the amount of bile acid present was measured enzymatically using the 3α-hydroxysteroid steroid dehydrogenase reaction with bile acids to reduce NAD. (Reference: Mashige, F., et al. (1981) Clin. Chem. 27, 1352).

| SMILES | IC50 (human IBAT) | Delta (micromoles fecal bile acid per day) (fecal bile acid (FBA); dose 5 mg/kg/day) | Delta (micromoles fecal bile acid per day) (fecal bile acid (FBA); dose .04 mg/kg/day) | Delta (micromoles fecal bile acid per day) (fecal bile acid (FBA); dose .2 mg/kg/day) | Delta (micromoles fecal bile acid per day) (fecal bile acid (FBA); dose 2 mg/kg/day) | Delta (micromoles fecal bile acid per day) (fecal bile acid (FBA); dose .016 mg/kg/day) | Delta (micromoles fecal bile acid per day) (fecal bile acid (FBA); dose .08 mg/kg/day) | Delta (micromoles fecal bile acid per day) (fecal bile acid (FBA); dose .4 mg/kg/day) |
| --- | --- | --- | --- | --- | --- | --- | --- | --- |
| CCCCC1(CCCC)CS(=O)(=O)c2ccc(N(C)C)cc2[C@@H](c2ccc(OCCCCC(=O)O)cc2)[C@H]1O [Example 1404, (4R-cis)-5-[4-[3,3-Dibutyl-7-(dimethylamino)-2,3,4,5-tetrahydro-4-hydroxy-1,1-dioxido-1-benzothiepin-5-yl]phenoxy]pentanoic Acid] | 10 nM | 93.7 micromoles fecal bile acid per day | 33.5 micromoles fecal bile acid per day | 59.1 micromoles fecal bile acid per day | – | – | – | – |
| CCCCC1(CCCC)CS(=O)(=O)c2ccc(N(C)C)cc2[C@@H](c2ccc(OCCC[N+]34CCN(CC3)CC4)cc2)[C@H]1O [Example 1406, (4R-cis)-1-[3-[4-[3,3-Dibutyl-7-(dimethylamino)-2,3,4,5-tetrahydro-4-hydroxy-1,1-dioxido-1-benzothiepin-5-yl]phenoxy]propyl]-4-aza-1-azoniabicyclo[2.2.2]octane, Methanesulfonate (Salt)] | 4 nM | – | – | – | 47.8 micromoles fecal bile acid per day | −8.5 micromoles fecal bile acid per day | 12.8 micromoles fecal bile acid per day | 31.6 micromoles fecal bile acid per day |
| CCCCC1(CCCC)CS(=O)(=O)c2ccc(N(C)C)cc2[C@@H](c2ccc(OCCCC[N+](CC)(CC)CC)cc2)[C@H]1O.CS(=O)(=O)[O-] [Example 1410, (4R-cis)-4-[4-[3,3-Dibutyl-7-(dimethylamino)-2,3,4,5-tetrahydro-4-hydroxy-1,1-dioxido-1-benzothiepin-5-yl]phenoxy]-N,N,N-triethyl-1-butanaminium] | 2 nM | – | – | – | 26.2 micromoles fecal bile acid per day | 20.4 micromoles fecal bile acid per day | 18.5 micromoles fecal bile acid per day | 36.5 micromoles fecal bile acid per day |
| CCCCC1(CCCC)CS(=O)(=O)c2ccc(N(C)C)cc2[C@@H](c2ccc(OCCCC[n+]3cccc(O)c3)cc2)[C@H]1O.CS(=O)(=O)[O-] [Example 1411, (4R-cis)-1-[4-[4-[3,3-Dibutyl-7-(dimethylamino)-2,3,4,5-tetrahydro-4-hydroxy-1,1-dioxido-1-benzothiepin-5-yl]phenoxy]butyl]-3-hydroxypyridinium, methanesulfonate (Salt)] | 2 nM | – | – | – | 63.4 micromoles fecal bile acid per day | 22.3 micromoles fecal bile acid per day | 33 micromoles fecal bile acid per day | 54.1 micromoles fecal bile acid per day |
| CCCCC1(CCCC)CS(=O)(=O)c2ccc(N(C)C)cc2[C@@H](c2ccc(OCCCCCN(CC)CC)cc2)[C@H]1O [Example 1414, (4R-cis)-3,3-Dibutyl-5-[4-[[5-(diethylamino)pentyl]oxy]phenyl]-7-(dimethylamino)-2,3,4,5-tetrahydro-1-benzothiepin-4-ol 1,1-dioxide] | 15 nM | 45.2 micromoles fecal bile acid per day | 14.3 micromoles fecal bile acid per day | 39.5 micromoles fecal bile acid per day | 41.5 micromoles fecal bile acid per day | 3.8 micromoles fecal bile acid per day | 29 micromoles fecal bile acid per day | 33.7 micromoles fecal bile acid per day |
| CCCCC1(CCCC)CS(=O)(=O)c2ccc(N(C)C)cc2[C@@H](c2ccc(OCCCCCN(CC(=O)O)CC(=O)O)cc2)[C@H]1O [Example 1415, (4R-cis)-N-(Carboxymethyl)-N-[5-[4-[3,3-dibutyl-7-(dimethylamino)-2,3,4,5-tetrahydro-4-hydroxy-1,1-dioxido-1-benzothiepin-5-yl]phenoxy]pentyl]glycine] | 2 nM | 59.9 micromoles fecal bile acid per day | 23.9 micromoles fecal bile acid per day | 48.1 micromoles fecal bile acid per day | 48.9 micromoles fecal bile acid per day | 12.7 micromoles fecal bile acid per day | 27.1 micromoles fecal bile acid per day | 25.7 micromoles fecal bile acid per day |
| CCCCC1(CCCC)CS(=O)(=O)c2ccc(N(C)C)cc2[C@@H](c2ccc(OCCCCCN(CCN(CC)CC)CCN(CC)CC)cc2)[C@H]1O [Example 1416, (4R-cis)-5-[4-[[5-[bis[2-(Diethylamino)ethyl]amino]pentyl]oxy]phenyl]-3,3-dibutyl-7-(dimethylamino)-2,3,4,5-tetrahydro-1-benzothiepin-4-ol 1,1-dioxide] | 14 nM | – | – | – | 46.1 micromoles fecal bile acid per day | −7.8 micromoles fecal bile acid per day | 25 micromoles fecal bile acid per day | 21.9 micromoles fecal bile acid per day |
| CCCCC1(CCCC)CS(=O)(=O)c2ccc(N(C)C)cc2[C@@H](c2ccc(OCCCCCNCCc3cnc[nH]3)cc2)[C@H]1O [Example 1417, (4R-cis)-3,3-Dibutyl-7-(dimethylamino)-2,3,4,5-tetrahydro-5-[4-[[5-[[2-(1H-imidazol-4-yl)ethyl]amino]pentyl]oxy]phenyl]-1-benzothiepin-4-ol 1,1-dioxide] | 2 nM | – | – | – | 51.4 micromoles fecal bile acid per day | 29.3 micromoles fecal bile acid per day | 39.6 micromoles fecal bile acid per day | 42 micromoles fecal bile acid per day |
| CCCCC1(CCCC)CS(=O)(=O)c2ccc(N(C)C)cc2[C@@H](c2ccc(OCCCCCNCC(=O)O)cc2)[C@H]1O [Example 1423, (4R-cis)-N-[5-[4-[3,3-Dibutyl-7-(dimethylamino)-2,3,4,5-tetrahydro-4-hydroxy-1,1-dioxido-1-benzothiepin-5-yl]phenoxy]pentyl]glycine] | 3 nM | – | – | – | 56.5 micromoles fecal bile acid per day | 14.4 micromoles fecal bile acid per day | 35.3 micromoles fecal bile acid per day | 69.3 micromoles fecal bile acid per day |
| CCCCC1(CCCC)CS(=O)(=O)c2ccc(N(C)C)cc2[C@@H](c2ccc(OCc3ccc(C[n+]4ccccc4)cc3)cc2)[C@H]1O.[Cl-] [Example 1425, (4R-cis)-1-[[4-[[4-[3,3-Dibutyl-7-(dimethylamino)-2,3,4,5-tetrahydro-4-hydroxy-1,1-dioxido-1-benzothiepin-5-yl]phenoxy]methyl]phenyl]methyl]-pyridinium chloride] | 2 nM | 91.8 micromoles fecal bile acid per day | 66.4 micromoles fecal bile acid per day | 100. micromoles fecal bile acid per day | – | – | – | – |
